Measured values: patent US11655217B2, “Pyrazole MAGL inhibitors” (H. Lundbeck A/S, priority 2017, dated 2023)

Tests used:
MAGL = MAGL (Mus musculus (Mouse), UniProt O35678); assay: Mouse brain proteomes from inhibitor treated mice (oral gavage, sacrificed 4 h after administration, ABPP analysis); settings: 5 mg/kg oral gavage
Experimental: (§1) Preparation of Mouse Brain Proteomes from Inhibitor Treated Mice.
(§2) Inhibitors were administered to wild-type C57Bl/6J by oral gavage in a vehicle of polyethylene glycol.

FAAH = FAAH (Mus musculus (Mouse), UniProt O08914); assay: Mouse brain proteomes from inhibitor treated mice (oral gavage, sacrificed 4 h after administration, ABPP analysis), FAAH; settings: 5 mg/kg oral gavage
Chain of FAAH (O08914 whole entry): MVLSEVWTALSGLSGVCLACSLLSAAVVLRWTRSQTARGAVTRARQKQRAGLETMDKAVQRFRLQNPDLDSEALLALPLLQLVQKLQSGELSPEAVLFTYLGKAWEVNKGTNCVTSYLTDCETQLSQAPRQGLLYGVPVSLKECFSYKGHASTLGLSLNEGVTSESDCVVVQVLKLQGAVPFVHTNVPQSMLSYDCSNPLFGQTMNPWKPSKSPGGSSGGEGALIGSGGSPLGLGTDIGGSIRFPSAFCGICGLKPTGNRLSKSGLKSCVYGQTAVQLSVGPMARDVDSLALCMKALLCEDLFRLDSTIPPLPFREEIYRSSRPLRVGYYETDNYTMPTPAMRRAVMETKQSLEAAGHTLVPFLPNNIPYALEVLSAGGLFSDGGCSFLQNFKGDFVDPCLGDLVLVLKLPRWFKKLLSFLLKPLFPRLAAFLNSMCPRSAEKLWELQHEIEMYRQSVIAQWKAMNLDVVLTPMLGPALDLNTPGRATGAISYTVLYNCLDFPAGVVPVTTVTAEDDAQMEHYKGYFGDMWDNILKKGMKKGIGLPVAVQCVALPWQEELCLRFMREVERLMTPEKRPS
Experimental: as §1, §2

Chain of MAGL (O35678 whole entry): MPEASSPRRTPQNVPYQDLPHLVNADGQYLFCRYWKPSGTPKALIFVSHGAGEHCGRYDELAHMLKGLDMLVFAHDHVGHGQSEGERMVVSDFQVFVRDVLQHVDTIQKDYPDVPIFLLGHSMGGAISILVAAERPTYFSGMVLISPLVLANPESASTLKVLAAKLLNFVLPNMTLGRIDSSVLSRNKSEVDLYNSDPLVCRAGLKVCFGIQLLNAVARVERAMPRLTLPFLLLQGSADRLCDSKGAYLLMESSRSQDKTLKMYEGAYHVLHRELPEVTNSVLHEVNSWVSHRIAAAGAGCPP

| Compound | MAGL % inh. 5 mg/kg (mouse) (MAGL) | FAAH % inh. 5 mg/kg (mouse) (FAAH) |
| --- | --- | --- |
| O=C(O)c1ccn(C(=O)N2CCN(Cc3ccc(Cl)cc3N3CC4COCC4C3)CC2)n1 (stereo not shown) [Example 111, 1-(4-(4-chloro-2-(tetrahydro-1H-furo[3,4-c]pyrrol-5(3H)-yl)benzyl)piperazine-1-carbonyl)-1H-pyrazole-3-carboxylic acid] | D (% inhibition is greater than or equal to 0% and less than 25%) | D (% inhibition is greater than or equal to 0% and less than 25%) |
| CC(=O)NC1CCN(c2cc(C(F)(F)F)ccc2CN2CCN(C(=O)n3ccc(C(=O)O)n3)CC2)CC1 [Example 119, 1-(4-(2-(4-acetamidopiperidin-1-yl)-4-(trifluoromethyl)benzyl)piperazine-1-carbonyl)-1H-pyrazole-3-carboxylic acid] | D (% inhibition is greater than or equal to 0% and less than 25%) | D (% inhibition is greater than or equal to 0% and less than 25%) |
